Source: publication PMC3491360 (ACS medicinal chemistry letters, 2012)
“Also recorded” adds a separate entry of the source.

Legend:
[1] = target: T1, hA3AR (Homo sapiens, UniProt P0DMS8); assay type: cell-based; details: in words, from cyclic AMP assay at 10 µM
T1 sequence (P0DMS8 1-318): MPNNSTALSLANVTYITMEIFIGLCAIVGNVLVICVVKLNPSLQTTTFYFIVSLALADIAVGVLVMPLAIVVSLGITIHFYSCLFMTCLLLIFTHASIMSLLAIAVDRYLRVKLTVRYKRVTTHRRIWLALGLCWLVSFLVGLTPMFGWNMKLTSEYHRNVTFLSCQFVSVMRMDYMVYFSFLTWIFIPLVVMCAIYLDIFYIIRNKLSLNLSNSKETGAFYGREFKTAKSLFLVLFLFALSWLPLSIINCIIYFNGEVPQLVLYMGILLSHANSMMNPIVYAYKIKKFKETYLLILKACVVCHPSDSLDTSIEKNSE

[2] = target: T1, hA3AR; details: read-out: Affinity (Ki) hA3; CHO cell membranes; ref Melman et al.[19]; cited from earlier work
[3] = target: T1, hA3AR; details: at 10 µM, relative to 10 µM NECA (=100%); ref Melman et al.[19]; cited from earlier work
[4] = target: hA2AAR (Homo sapiens, UniProt P29274); details: read-out: Affinity (Ki) hA2A; HEK293 cell membranes; ref Melman et al.[19]; cited from earlier work
[5] = target: T2, hA1AR (Homo sapiens, UniProt P30542); details: read-out: Affinity (Ki) hA1; CHO cell membranes; ref Melman et al.[19]; cited from earlier work
T2 sequence (P30542 1-326): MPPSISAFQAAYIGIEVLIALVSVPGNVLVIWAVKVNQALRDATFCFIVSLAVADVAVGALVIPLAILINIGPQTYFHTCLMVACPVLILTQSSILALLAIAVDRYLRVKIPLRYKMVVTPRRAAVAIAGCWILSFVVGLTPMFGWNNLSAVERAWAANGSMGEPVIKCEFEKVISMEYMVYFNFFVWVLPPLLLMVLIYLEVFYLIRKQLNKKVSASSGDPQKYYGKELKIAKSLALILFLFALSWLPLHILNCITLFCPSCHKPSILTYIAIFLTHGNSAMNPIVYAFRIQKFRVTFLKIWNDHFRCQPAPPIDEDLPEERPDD

Sequence of hA2AAR (P29274 whole entry): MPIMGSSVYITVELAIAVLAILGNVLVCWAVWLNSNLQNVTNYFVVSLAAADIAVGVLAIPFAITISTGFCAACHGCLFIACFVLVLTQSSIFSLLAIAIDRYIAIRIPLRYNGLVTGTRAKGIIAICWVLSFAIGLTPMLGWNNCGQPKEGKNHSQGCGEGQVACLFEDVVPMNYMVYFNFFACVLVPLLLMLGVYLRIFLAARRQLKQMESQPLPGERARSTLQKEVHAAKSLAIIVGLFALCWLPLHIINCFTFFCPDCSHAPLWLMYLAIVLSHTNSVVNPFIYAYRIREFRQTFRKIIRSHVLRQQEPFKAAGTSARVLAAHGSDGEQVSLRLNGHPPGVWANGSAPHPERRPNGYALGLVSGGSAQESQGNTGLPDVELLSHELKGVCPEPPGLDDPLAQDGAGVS

Row | Compound | functional character at the hA3AR [1] | further results
1 | O[C@@H]1[C@H](O)[C@@H]2C[C@@H]2[C@H]1n1cnc2c(NCCc3ccccc3)nc(C#Cc3ccccc3)nc21 [Compound 15] | selective antagonist; also recorded: antagonists | 
2 | O[C@@H]1[C@H](O)[C@@H]2C[C@@H]2[C@H]1n1cnc2c(NCc3cccc(I)c3)nc(Cl)nc21 [Compound 2a] |  | Ki [2]: 1.44 nM; %Efficacy hA3 [3]: 1.0±3.2%
3 | CNC(=O)[C@@]12C[C@@H]1[C@@H](n1cnc3c(NCc4cccc(Cl)c4)nc(Cl)nc31)[C@H](O)[C@@H]2O [Compound 1] |  | Ki [4]: 2300 ± 100 nM
4 | CNc1nc(C#Cc2ccccc2Cl)nc2c1ncn2[C@H]1[C@H](O)[C@H](O)[C@@H]2C[C@@H]21 [Compound 5] | antagonists | 
5 | O[C@@H]1[C@H](O)[C@@H]2C[C@@H]2[C@H]1n1cnc2c(NCc3cccc(Cl)c3)nc(C#Cc3ccccc3Cl)nc21 [Compound 12] | low-efficacy partial agonists | 
6 | CONc1nc(C#Cc2ccccc2)nc2c1ncn2[C@H]1[C@H](O)[C@H](O)[C@@H]2C[C@@H]21 [Compound 6] | low-efficacy partial agonists | 
7 | OC1C(O)C(n2cnc3c(NCc4cccc(Cl)c4)nc(Cl)nc32)C2CC12 (stereo not shown) [Compound 2b] |  | Ki [5]: 3070 nM; Ki [4]: 4510 nM; %Efficacy hA3 [3]: 2.9±3.7%
8 | O[C@@H]1[C@H](O)[C@@H]2C[C@@H]2[C@H]1n1cnc2c(NCCc3ccccc3)nc(C#Cc3ccccc3Cl)nc21 [Compound 16] | low-efficacy partial agonists | 
9 | CCNc1nc(C#Cc2ccccc2Cl)nc2c1ncn2[C@H]1[C@H](O)[C@H](O)[C@@H]2C[C@@H]21 [Compound 9] | antagonists | 
10 | CCNc1nc(C#Cc2ccccc2)nc2c1ncn2[C@H]1[C@H](O)[C@H](O)[C@@H]2C[C@@H]21 [Compound 8] | antagonists | 
